Assays:
[1] = parameters: method as in PMID 25957747; details: aqueous solution, untreated Skin-PAMPA plates; cited from earlier work
[2] = Skin-PAMPA membrane integrity study with piroxicam as model permeant; assay type: in vitro ADME; details: piroxicam from aqueous solution; membranes pre-treated 7 h with each of 13 solvents
Procedure: Possible disruption by solvents of the integrity of the biomimetic artificial membrane was investigated. Wells were filled with each solvent and incubated over a longer (minimum 7 h) incubation time than the duration of the tests with the model solutions. The solvents were aspirated from the wells, and the residue from the surface of the membrane was removed gently with cotton paper. A standard skin permeability assay was then performed using piroxicam as the model permeant, for which precise previous data are available. The logPm values were compared with the reference value from untreated plates.

[3] = Penetration kinetics across pig ear skin; assay type: in vitro ADME
Procedure: Before use, hairs were shaved from the pig ear skin using an electric razor, and the skin thickness was adjusted between 700 and 1200 µm. This size range was achieved by cutting the dermis below hair follicle. The integrity of the skin was tested according to the Trans-Epidermal Water Loss (TEWL) method using a Delfin device.
After topical application of the test chemical (infinite dose, 1.13 mL/cm^2), the concentration of the chemical in the receptor fluid was measured by sampling 200 µL of receptor fluid and replacing it with fresh fluid on an hourly basis, up to 16 h.
The kinetic samples were directly injected into an LC/MS-MS system (Shimadzu Nexera LC system, Shimadzu, Kyoto, Japan) coupled with a mass spectrometer API 3500 (Sciex, Framingham, MA, USA). The analytical system was managed by Analyst v.1.6 software (Sciex, Framingham, MA, USA). The analytical column used was a Kinetex C18 from Phenomenex™ (Torrance, CA, USA) (50 × 2.0 mm, dp. 2.6 µm), and analysis was carried out with a gradient elution with mobile phases of 20 mM ammonium acetate (A) and acetonitrile (B). The column temperature was fixed at 50 °C, and the volume of the injection was 10 µL with a flow rate of 0.8 mL/min. The ionisation mode used was electrospray negative.
The calculation was carried out using GraphPad PrismT v.7 (GraphPad Software Inc., San Diego, CA, USA).

[4] = Skin-PAMPA permeability of PER in different solvents; assay type: in vitro ADME
Procedure: Skin PAMPA™ sandwiches and stirring bars (P/N: 110211) were supplied by Pion Inc™. UV plates (UV-star microplate, clear, flat bottom, half area) were from Greiner Bio-one™ (Kremsmünster, Austria). Membranes were hydrated overnight with standard hydration solution (Pion Inc™., product number 120706). […] The acceptor (lower) plate contained 180 μL Prisma buffer pH 7.4 and a magnetic stirrer in each well. The PAMPA™ sandwich was incubated at 32 °C in a Gut-Box™ (from Pion Inc™). Stirring bars were applied in every well to avoid the effect of the unstirred water layer. The acceptor solution was sampled after 7.5, 15, 30, 60, 120, 240 and 360 min incubation. After each individual incubation period, 150 µL from the acceptor compartment was transferred to UV plates. The acceptor phase was replaced with fresh buffer solution.
The flux (J) was obtained as the slope of the permeability profile and expressed in µg/cm^2 × h units. For the linear regression analysis, the linear range of incubation period from 0 to 30 min was selected and used for calculation of flux of the model compound. Permeability coefficient Pm […] was calculated from the equation:Pm= J/CD(2) where CD is the donor phase concentration.

[5] = Stability in buffer solutions (LC/MS-MS method validation); assay type: physicochemical; details: spiked at 426 and 21.5 ng/mL
Procedure: The specificity of the analytical method was controlled with blank (NaCl, 9 g/L) solution (Merck, Darmstadt Germany). The limit of quantitation (LoQ) was 2.43 ng/mL. Linearity was determined between the LoQ and 1000 ng/mL, with accuracy below ±15%, except at the LoQ, which was below ± 20%. Accuracy and precision were determined at least at two quality control (QC) theoretical concentrations: low (around 20 ng/mL) and middle (around 300 ng/mL). All QCs remained within the acceptance criteria (accuracy < ±15%). Matrix effects and stability in buffer solutions and buffer supplemented with pig skin were evaluated at two concentrations (426 and 21.5 ng/mL) in triplicate by spiking buffer solutions containing known amounts of chemical. […] A matrix effect was observed; therefore, all calibrations for this chemical were carried out in the matrix.

[6] = logP by shake-flask method, octanol/water; assay type: physicochemical; details: 25.0 °C
Procedure: Two parallel experiments were carried out. Four different phase ratios of octanol:water (1:50, 1:75, 1:100, 1:125) were applied. The equilibration time was 1 h (Lauda M2OS, shaking thermostat Königshofen, Germany), and the phases were separated by centrifugation. The concentration decrease in the sample in the aqueous phase was detected by UV spectroscopy (Jasco V-550 UV/VIS spectrophotometer, Easton, MD, USA) measuring the absorbance before and after the partition at λmax = 280 nm. The logP value was calculated from the equation:(1) logP=log[A0−A1/A1(Vaq/Voct)] where A0 and A1 represent the absorbance value at the absorption maximum of the compound in the aqueous phase before and after partition.

[7] = parameters: method as in L'Oréal Laboratories; details: AH/A−; ref L'Oréal Laboratories; cited from earlier work
[8] = PER in S4 Dimethylisosorbide, CD 60 mg/mL
[9] = PER in S5 Water/ethanol 80:20 (w/w), CD 8 mg/mL
[10] = PER in S6 Water/dimethylisosorbide 90:10 (w/w), CD 1 mg/mL
[11] = PER in S7 Propylene glycol, CD 350 mg/mL
[12] = PER in S8 Water:propylene glycol 80:20 (w/w), CD 51 mg/mL
[13] = PER in S10 Capric/caprylic triglycerides, CD 75 mg/mL
[14] = PER in S2 Ethanol, CD 500 mg/mL
[15] = PER in S4 Dimethylisosorbide, CD 70 mg/mL
[16] = PER in S5 Water/ethanol 80:20 (w/w), CD 10 mg/mL
[17] = PER in S7 Propylene glycol, CD 500 mg/mL
[18] = PER in S8 Water:propylene glycol 80:20 (w/w), CD 10 mg/mL
[19] = PER in S9 Water/propylenglycol/ethanol 10:30:60 (w/w/w), CD 500 mg/mL
[20] = PER in S10 Capric/caprylic triglycerides, CD 70 mg/mL
[21] = PER in S11 Octyl dodecanol, CD 1 mg/mL
[22] = PER in S12 Apricot kernel oil, CD 1 mg/mL
[23] = PER in S13 Corn oil, CD 1 mg/mL

Compound: CN1C(C(=O)Nc2ccccn2)=C(O)c2ccccc2S1(=O)=O [piroxicam]
- reference logPm of piroxicam [1]: −4.98 ± 0.01
- logPm of piroxicam, mean across solvent-treated membranes [2]: −4.25 ± 0.30

Compound: 4-phenylethyl-resorcinol [PER]
- J (flux) ([3]; PER in S1 Water, CD 1 mg/mL): 25 ± 9.6 µg/cm^2 × h
- Permeated Amount (16 h) ([3]; PER in S1 Water, CD 1 mg/mL): 261 ± 100 µg/cm^2
- logKp ([3]; PER in S1 Water, CD 1 mg/mL): −1.71 ± 0.32
- Permeated Amount (16 h) ([3]; PER in S2 Ethanol, CD […]): 98 ± 67 µg/cm^2
- J (flux) [3, 8]: 0.08 ± 0.024 µg/cm^2 × h
- logKp [3, 8]: −5.88 ± 0.19
- J (flux) [3, 9]: 61 ± 18 µg/cm^2 × h
- Permeated Amount (16 h) [3, 9]: 515 ± 203 µg/cm^2
- logKp [3, 9]: −1.97 ± 0.34
- J (flux) [3, 10]: 7.5 ± 3 µg/cm^2 × h
- Permeated Amount (16 h) [3, 10]: 100 ± 37 µg/cm^2
- logKp [3, 10]: −2.16 ± 0.26
- J (flux) [3, 11]: 20 ± 17.6 µg/cm^2 × h
- Permeated Amount (16 h) [3, 11]: 147 ± 120 µg/cm^2
- logKp [3, 11]: −4.24 ± 0.81
- J (flux) [3, 12]: 98 ± 50 µg/cm^2 × h
- Permeated Amount (16 h) [3, 12]: 516 ± 109 µg/cm^2
- logKp [3, 12]: −1.72 ± 0.34
- Permeated Amount (16 h) ([3]; PER in S9 Water/propylenglycol/ethanol 10:30:60 (w/w/w), CD […]): 320 ± 149 µg/cm^2
- J (flux) [3, 13]: 8 ± 3.5 µg/cm^2 × h
- Permeated Amount (16 h) [3, 13]: 54 ± 34 µg/cm^2
- logKp [3, 13]: −3.97 ± 0.29
- J (flux) ([4]; PER in S1 Water, CD 1 mg/mL): 72.4 ± 7.8 µg/cm^2 × h
- Lag Time ([4]; PER in S1 Water, CD 1 mg/mL): 1.4 min
- Permeated Amount (6 h) ([4]; PER in S1 Water, CD 1 mg/mL): 169 ± 4 µg/cm^2
- logPm ([4]; PER in S1 Water, CD 1 mg/mL): −1.12 ± 0.06
- J (flux) [4, 14]: 12,033 ± 252 µg/cm^2 × h
- Lag Time [4, 14]: 0.0 min
- Permeated Amount (6 h) [4, 14]: 13,575 ± 1710 µg/cm^2
- logPm [4, 14]: −1.62 ± 0.01
- J (flux) ([4]; PER in S3 Glycerol, CD 5 mg/mL): 137 ± 22 µg/cm^2 × h
- Lag Time ([4]; PER in S3 Glycerol, CD 5 mg/mL): 5.5 min
- Permeated Amount (6 h) ([4]; PER in S3 Glycerol, CD 5 mg/mL): 869 ± 112 µg/cm^2
- logPm ([4]; PER in S3 Glycerol, CD 5 mg/mL): −1.57 ± 0.07
- J (flux) [4, 15]: 209 ± 53 µg/cm^2 × h
- Lag Time [4, 15]: 3.6 min
- Permeated Amount (6 h) [4, 15]: 1342 ± 298 µg/cm^2
- logPm [4, 15]: −2.54 ± 0.13
- J (flux) [4, 16]: 589 ± 25 µg/cm^2 × h
- Lag Time [4, 16]: 0.9 min
- Permeated Amount (6 h) [4, 16]: 1662 ± 169 µg/cm^2
- logPm [4, 16]: −1.23 ± 0.03
- J (flux) [4, 10]: 76.4 ± 15.2 µg/cm^2 × h
- Lag Time [4, 10]: 0.0 min
- Permeated Amount (6 h) [4, 10]: 175 ± 22 µg/cm^2
- logPm [4, 10]: −1.13 ± 0.07
- J (flux) [4, 17]: 2118 ± 502 µg/cm^2 × h
- Lag Time [4, 17]: 3.8 min
- Permeated Amount (6 h) [4, 17]: 11,142 ± 729 µg/cm^2
- logPm [4, 17]: −2.38 ± 0.11
- J (flux) [4, 18]: 570 ± 5 µg/cm^2 × h
- Lag Time [4, 18]: 1.1 min
- Permeated Amount (6 h) [4, 18]: 1772 ± 98 µg/cm^2
- logPm [4, 18]: −1.24 ± 0.01
- J (flux) [4, 19]: 10,846 ± 326 µg/cm^2 × h
- Lag Time [4, 19]: 1.4 min
- Permeated Amount (6 h) [4, 19]: 14,926 ± 2431 µg/cm^2
- logPm [4, 19]: −1.66 ± 0.01
- J (flux) [4, 20]: 377 ± 36 µg/cm^2 × h
- Lag Time [4, 20]: 3.0 min
- Permeated Amount (6 h) [4, 20]: 749 ± 92 µg/cm^2
- J (flux) [4, 21]: 7.18 ± 1.6 µg/cm^2 × h
- Lag Time [4, 21]: 3.9 min
- Permeated Amount (6 h) [4, 21]: 19 ± 0.4 µg/cm^2
- J (flux) [4, 22]: 2.45 ± 0.57 µg/cm^2 × h
- Lag Time [4, 22]: 3.3 min
- Permeated Amount (6 h) [4, 22]: 13 ± 1.9 µg/cm^2
- logPm [4, 22]: −2.63 ± 0.07
- J (flux) [4, 23]: 3.26 ± 0.41 µg/cm^2 × h
- Lag Time [4, 23]: 1.4 min
- Permeated Amount (6 h) [4, 23]: 13 ± 1.3 µg/cm^2
- logPm [4, 23]: −2.48 ± 0.06
- calculated lag times ([4]; span over all 13 solvents): 0 to 6 min
- stability in buffer solutions spiked with PER [5]: 98.3 ± 7.0%
- logP [6]: 2.98 ^1
- pKa [7]: 9.77–10.77 (AH/A^−) ^2

Reference: article PMC8625559 (Pharmaceutics, 2021)
